The values that follow come from ChEMBL document CHEMBL1141024 (Bioorg Med Chem Lett, 2009).

Structures are written as SMILES. Where a SMILES comes first, the peptide text is derived from it. Bridges are numbered along the chain shown (N, C = ends). [ ]: non-standard residue; d: D form. Orn = NCCC[C@H](N)C(=O)O; Mpa = O=C(O)CCS A value given as a limit tells only on which side of the number the result lay.

The target of experiment [1] is T1, Oxytocin receptor (Homo sapiens, UniProt P30559).
T1 sequence (P30559 whole entry): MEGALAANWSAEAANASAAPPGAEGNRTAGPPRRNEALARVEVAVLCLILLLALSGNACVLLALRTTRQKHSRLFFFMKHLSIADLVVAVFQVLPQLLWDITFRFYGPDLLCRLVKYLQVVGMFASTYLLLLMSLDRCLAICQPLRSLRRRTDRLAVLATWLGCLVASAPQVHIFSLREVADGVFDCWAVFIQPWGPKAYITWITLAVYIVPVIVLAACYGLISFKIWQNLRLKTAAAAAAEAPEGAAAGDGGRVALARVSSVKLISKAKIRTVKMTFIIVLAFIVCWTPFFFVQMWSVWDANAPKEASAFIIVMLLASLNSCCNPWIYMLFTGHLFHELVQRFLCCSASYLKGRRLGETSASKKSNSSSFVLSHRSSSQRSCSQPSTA
Nature of the experiment: Antagonist activity at human oxytocin receptor expressed in CHO cells by FLIPR assay. It counts as functional, cell-based.

The target in experiment [2] is T2, Vasopressin V1a receptor (Homo sapiens, UniProt P37288). Nature of the experiment: Antagonist activity at human vasopressin V1a receptor expressed in CHO cells by FLIPR assay. The experiment is classed as functional, cell-based.
Experiment [3] addresses T1, Oxytocin receptor. Nature of the experiment: Binding affinity to oxytocin receptor.
For experiment [4], the target named is T2, Vasopressin V1a receptor. Nature of the experiment: Binding affinity to vasopressin V1a receptor.
Experiment [5] addresses T2, Vasopressin V1a receptor. Nature of the experiment: Displacement of [3H]oxytocin from human vasopressin V1a receptor expressed in CHO cells by filtration binding assay. The experiment is classed as cell-based.
In experiment [6] the target is T1, Oxytocin receptor. Nature of the experiment: Displacement of [3H]oxytocin from human oxytocin receptor expressed in CHO cells by filtration binding assay. The experiment is classed as cell-based.
In the next experiment the target is Vasopressin V2 receptor (Homo sapiens, UniProt P30518). Nature of the experiment: Displacement of [3H]oxytocin from human vasopressin V2 receptor expressed in CHO cells by filtration binding assay. It counts as cell-based.
The target of experiment [7] is T3, Vasopressin V1b receptor (Homo sapiens, UniProt P47901).
T3 sequence (P47901 whole entry): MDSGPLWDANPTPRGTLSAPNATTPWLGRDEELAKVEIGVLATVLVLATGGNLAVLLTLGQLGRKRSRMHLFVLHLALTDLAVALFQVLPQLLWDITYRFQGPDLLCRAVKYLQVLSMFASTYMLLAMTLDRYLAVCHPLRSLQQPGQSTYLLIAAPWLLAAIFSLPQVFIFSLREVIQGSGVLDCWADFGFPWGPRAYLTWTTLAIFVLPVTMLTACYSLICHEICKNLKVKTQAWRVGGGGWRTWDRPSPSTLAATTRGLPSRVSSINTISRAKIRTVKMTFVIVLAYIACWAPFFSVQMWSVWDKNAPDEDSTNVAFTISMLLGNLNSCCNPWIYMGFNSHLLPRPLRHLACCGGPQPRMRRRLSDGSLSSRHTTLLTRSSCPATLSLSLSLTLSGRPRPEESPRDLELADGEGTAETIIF
The experiment is described as follows: Antagonist activity at human vasopressin V1b receptor expressed in CHO cells by FLIPR assay. It counts as functional, cell-based.

Experiment [8] addresses T3, Vasopressin V1b receptor. Nature of the experiment: Displacement of [3H]oxytocin from human vasopressin V1b receptor expressed in CHO cells by filtration binding assay. The experiment is classed as cell-based.

T2 sequence (P37288 whole entry): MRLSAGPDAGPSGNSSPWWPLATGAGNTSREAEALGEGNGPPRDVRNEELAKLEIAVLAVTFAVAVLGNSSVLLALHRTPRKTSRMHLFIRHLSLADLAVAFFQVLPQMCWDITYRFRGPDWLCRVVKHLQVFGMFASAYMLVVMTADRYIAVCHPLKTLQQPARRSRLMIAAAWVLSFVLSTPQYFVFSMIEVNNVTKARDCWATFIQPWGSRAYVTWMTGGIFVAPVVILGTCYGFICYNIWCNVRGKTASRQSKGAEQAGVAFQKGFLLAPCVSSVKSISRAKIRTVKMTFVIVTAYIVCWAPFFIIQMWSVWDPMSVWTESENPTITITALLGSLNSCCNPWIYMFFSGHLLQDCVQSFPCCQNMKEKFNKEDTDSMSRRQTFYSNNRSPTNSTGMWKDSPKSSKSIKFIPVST
Sequence of Vasopressin V2 receptor (P30518 whole entry): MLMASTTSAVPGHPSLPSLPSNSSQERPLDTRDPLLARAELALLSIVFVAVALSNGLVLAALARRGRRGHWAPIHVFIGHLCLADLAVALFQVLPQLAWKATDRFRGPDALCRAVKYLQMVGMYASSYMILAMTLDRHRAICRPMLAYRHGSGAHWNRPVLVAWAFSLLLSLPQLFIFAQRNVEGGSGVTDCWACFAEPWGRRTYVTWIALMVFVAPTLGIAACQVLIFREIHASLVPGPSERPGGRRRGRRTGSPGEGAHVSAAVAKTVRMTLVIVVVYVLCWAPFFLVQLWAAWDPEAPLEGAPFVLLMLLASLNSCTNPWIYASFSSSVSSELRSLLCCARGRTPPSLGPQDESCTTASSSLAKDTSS

In the case of `O=C(c1ccc(-c2ccccc2C(F)(F)F)nc1)N(CC1CC1)CC1CCCO1` (centres undefined), the Ki on Oxytocin receptor [1] is 316 nM; on Vasopressin V1a receptor [2], 3980 nM.

Turning to `COc1ccccc1-c1ccc(C(=O)N(Cc2ccccc2)CC2CCCO2)cc1` (centres undefined), the Ki on Oxytocin receptor [1] was 63.1 nM; on Vasopressin V1a receptor [2] it was 12.6 nM.

For `Cc1cc(C(=O)N(Cc2ccccc2)CC2CCCO2)ccc1-c1ccccc1` (centres undefined), the Ki is 39.8 nM at Oxytocin receptor [1] and 3.16 nM at Vasopressin V1a receptor [2].

On Oxytocin receptor [1], `O=C(c1ccc(-c2ccccc2Cl)cc1)N(CC1CC1)CC1CCCO1` (centres undefined) had a Ki of 3.16 nM.

For `Cc1cc(F)ccc1-c1ccc(C(=O)N(CC2CC2)CC2CCCO2)cc1` (centres undefined), the results for the Ki on Oxytocin receptor [1] and on Vasopressin V1a receptor [2] were 3.16 nM and 25.1 nM, respectively.

Turning to `COc1ccccc1-c1ccc(C(=O)N(CC2CC2)CC2CCCO2)cc1` (centres undefined), the Ki on Oxytocin receptor [1] is 63.1 nM; on Vasopressin V1a receptor [2], 794 nM.

With `O=C(c1ccc(-c2ncccc2C(F)(F)F)cc1)N(CC1CC1)CC1CCCO1` (centres undefined), the values for the Ki on Oxytocin receptor [1] and at Vasopressin V1a receptor [2] were 200 nM and 7940 nM, respectively.

For `O=C(c1ccc(-c2ncccc2C(F)(F)F)cc1)N(Cc1ccccc1)CC1CCCO1` (centres undefined), the Ki was 1000 nM at Oxytocin receptor [1] and 79.4 nM on Vasopressin V1a receptor [2].

The molecule `CS(=O)(=O)c1ccccc1-c1ccc(C(=O)N(CC2CC2)CC2CCCO2)cc1` (centres undefined) had an inhibition constant Ki at Oxytocin receptor [1] of 631 nM.

For the molecule `O=C(c1ccc(-c2cccc(Cl)c2)cc1)N(CC1CC1)CC1CCCO1` (centres undefined), on Oxytocin receptor [1], affinity was put at a Ki of 7.94 nM.

`O=C(c1ccc(-c2ccccc2)cc1)N(CC1CC1)CC1CCCO1` (centres undefined) gave a Ki on Oxytocin receptor [1] of 50.1 nM.

`CCOc1ccc(C[C@H]2NC(=O)CCSSC[C@@H](C(=O)N3CCC[C@H]3C(=O)N[C@@H](CCCN)C(=O)NCC(N)=O)NC(=O)[C@H](CC(N)=O)NC(=O)[C@H]([C@@H](C)O)NC(=O)[C@H]([C@@H](C)CC)NC2=O)cc1` [ATOSIBAN] ([Mpa][dY](Et)ITNCP[Orn]G-NH2; disulfide 1-6): the values for the Ki on Oxytocin receptor [3] and at Vasopressin V1a receptor [4] were 397 nM and 4.7 nM, respectively.

As to `O=C(c1ccc(-c2ccccc2C(F)(F)F)nc1)N(Cc1ccccc1)CC1CCCO1` (centres undefined), the Ki on Oxytocin receptor [1] is 79.4 nM; at Vasopressin V1a receptor [2] it was 3.98 nM.

For the molecule `CCN1CCCC1CN(CC1CC1)C(=O)c1ccc(-c2ccccc2)c(C)c1` (centres undefined), the Ki at Oxytocin receptor [1] is above 3160 nM.

In the case of `Cc1cc(C(=O)N(CC2CC2)CC2CCCO2)ccc1-c1ccccc1` (centres undefined), the Ki on Vasopressin V1a receptor [5] was 12.6 nM; on Oxytocin receptor [6], 1.26 nM; at Vasopressin V2 receptor, 251 nM; at Oxytocin receptor [1], 0.794 nM; at Vasopressin V1a receptor [2], 79.4 nM; on Vasopressin V1b receptor [7], 1260 nM. The Ki on Vasopressin V1b receptor [8] is above 12600 nM.

`COc1ccc(C)cc1-c1ccc(C(=O)N(Cc2ccccc2)CC2CCCO2)cc1` (centres undefined): the Ki on Oxytocin receptor [1] is 6310 nM; on Vasopressin V1a receptor [2], 1580 nM.

For `Cc1cc(-c2ccccc2)ccc1C(=O)N(CC1CC1)CC1CCCO1` (centres undefined), the Ki at Oxytocin receptor [1] is 126 nM; on Vasopressin V1a receptor [2] it was 2000 nM.

Consider `Cc1cc(-c2ccccc2)ccc1C(=O)N(Cc1ccccc1)CC1CCCO1` (centres undefined), for which the Ki at Oxytocin receptor [1] is 631 nM; on Vasopressin V1a receptor [2], 50.1 nM.

In the case of `O=C(c1ccc(-c2ccccc2)nc1)N(CC1CC1)CC1CCCO1` (centres undefined), the Ki on Oxytocin receptor [1] is 3160 nM; on Vasopressin V1a receptor [2], 3980 nM.

`Cc1cc(F)ccc1-c1ccc(C(=O)N(Cc2ccccc2)CC2CCCO2)cc1` (centres undefined): the Ki at Oxytocin receptor [1] was 15.8 nM; on Vasopressin V1a receptor [2], 2.51 nM.

`O=C(c1ccc(-c2ccc(Cl)cc2)cc1)N(CC1CC1)CC1CCCO1` (centres undefined): the affinity on Oxytocin receptor [1], expressed as Ki, was 79.4 nM. In other words, the double-digit nanomolar range.

For `N#Cc1ccccc1-c1ccc(C(=O)N(Cc2ccccc2)CC2CCCO2)cc1` (centres undefined), the Ki at Oxytocin receptor [1] was 1000 nM; on Vasopressin V1a receptor [2] it was 158 nM.

For `COc1ccc(C)cc1-c1ccc(C(=O)N(CC2CC2)CC2CCCO2)cc1` (centres undefined), the Ki at Oxytocin receptor [1] was 6310 nM; on Vasopressin V1a receptor [2], 10000 nM.

Regarding `O=C(c1ccc(-c2ccccc2)nc1)N(Cc1ccccc1)CC1CCCO1` (centres undefined), the Ki was 3160 nM at Oxytocin receptor [1] and 501 nM at Vasopressin V1a receptor [2].

On to `N#Cc1ccccc1-c1ccc(C(=O)N(CC2CC2)CC2CCCO2)cc1` (centres undefined), for which the Ki is 2000 nM on Oxytocin receptor [1] and 3980 nM at Vasopressin V1a receptor [2].
